From ChEMBL document CHEMBL1201862, “PubChem BioAssay data set” (2004)
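Each compound was tested at five concentrations against cells in 96-well plates for 48 hours. At the GI50, growth is halved.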 Activity calls are given as the source filed them. No stated cut-off is given here; in the data, active = GI50 up to about 1.1 µM and inactive = higher.

How the values were obtained:
Experiment in all cases: NCI tumour cell line growth inhibition, 48 h
HOP-62 = system: HOP-62
SK-MEL-28 = system: SK-MEL-28
NCI-H460 = system: NCI-H460
Malme-3M = system: Malme-3M
SF-268 = system: SF-268
HOP-92 = system: HOP-92
NCI-H23 = system: NCI-H23
HCT-116 = system: HCT-116
UO-31 = system: UO-31
HCC 2998 = system: HCC 2998
NCI-H522 = system: NCI-H522
SNB-19 = system: SNB-19
SF-539 = system: SF-539
A498 = system: A498
OVCAR-5 = system: OVCAR-5

| Structure (SMILES) | GI50 (HOP-62) | GI50 (SK-MEL-28) | GI50 (NCI-H460) | GI50 (Malme-3M) | GI50 (SF-268) | GI50 (HOP-92) | GI50 (NCI-H23) | GI50 (HCT-116) | GI50 (UO-31) | GI50 (HCC 2998) | GI50 (NCI-H522) | GI50 (SNB-19) | GI50 (SF-539) | GI50 (A498) | GI50 (OVCAR-5) |
| --- | --- | --- | --- | --- | --- | --- | --- | --- | --- | --- | --- | --- | --- | --- | --- |
| CCCCCCCCCCCCCCCc1nnc(SCC(=O)O)[nH]1 | > 100 µM (inactive) | 80.7 µM (inactive) | > 100 µM (inactive) | > 100 µM (inactive) | 42 µM (inactive) | 32.1 µM (inactive) | > 100 µM (inactive) | 92.7 µM (inactive) | 49.9 µM (inactive) | 43.9 µM (inactive) | 41.6 µM (inactive) | 49.7 µM (inactive) | 48 µM (inactive) |  |  |
| COC(=O)Cc1c([C@@]2(C)CCCC(C)(C)C2)ccc2c1C(=O)OC2 |  | 13.1 µM (inactive) | 8.83 µM (inactive) | 17.9 µM (inactive) |  | 3.01 µM (inactive) | 9.35 µM (inactive) | 5.64 µM (inactive) | 3.58 µM (inactive) |  | 5.04 µM (inactive) |  | 15.6 µM (inactive) | 25.5 µM (inactive) |  |
| COc1ccc(C[C@]23CCC(=O)N2CCc2cc(OC)c(O)cc23)cc1O | > 100 µM (inactive) | > 100 µM (inactive) | > 100 µM (inactive) | > 100 µM (inactive) | > 100 µM (inactive) | > 100 µM (inactive) | > 100 µM (inactive) | > 100 µM (inactive) | > 100 µM (inactive) | > 100 µM (inactive) |  | > 100 µM (inactive) | > 100 µM (inactive) | > 100 µM (inactive) | > 100 µM (inactive) |
| O=C(CSc1nnc(Cc2ccccc2)o1)Nc1ccccc1Cl | > 100 µM (inactive) | > 100 µM (inactive) | > 100 µM (inactive) | > 100 µM (inactive) | > 100 µM (inactive) |  | > 100 µM (inactive) | > 100 µM (inactive) | > 100 µM (inactive) | > 100 µM (inactive) | > 100 µM (inactive) | > 100 µM (inactive) | > 100 µM (inactive) | > 100 µM (inactive) | > 100 µM (inactive) |
| CCCCc1c2c(nc3c1CC/C(=C\c1ccccc1)C3=O)CCCC2 | 4.62 µM (inactive) | 3.37 µM (inactive) | 4.89 µM (inactive) | 7.33 µM (inactive) | 3.49 µM (inactive) |  | 5.43 µM (inactive) | 4.9 µM (inactive) | 6.05 µM (inactive) | 3.52 µM (inactive) | 2.15 µM (inactive) | 3.48 µM (inactive) | 2.29 µM (inactive) |  |  |
| COc1cc2c(cc1O)C=NCC2 |  | > 100 µM (inactive) | > 100 µM (inactive) | > 100 µM (inactive) | > 100 µM (inactive) | > 100 µM (inactive) | > 100 µM (inactive) | > 100 µM (inactive) | > 100 µM (inactive) |  | > 100 µM (inactive) | > 100 µM (inactive) | > 100 µM (inactive) | 94.2 µM (inactive) | > 100 µM (inactive) |
| CC1(C)C(=O)C(C)(C)C1=NN | > 100 µM (inactive) | > 100 µM (inactive) | > 100 µM (inactive) | > 100 µM (inactive) | > 100 µM (inactive) | > 100 µM (inactive) | > 100 µM (inactive) | > 100 µM (inactive) | > 100 µM (inactive) | > 100 µM (inactive) | > 100 µM (inactive) | > 100 µM (inactive) | > 100 µM (inactive) |  | > 100 µM (inactive) |
| CCSC(SCC)=C1C(=O)N(c2ccccc2)N=C1C | 23.3 µM (inactive) | 12.9 µM (inactive) | 16 µM (inactive) | 10.4 µM (inactive) | 14.1 µM (inactive) | 6.38 µM (inactive) | 18.3 µM (inactive) | 15.1 µM (inactive) | 15.6 µM (inactive) | 14.5 µM (inactive) | 1.95 µM (inactive) | 25.2 µM (inactive) |  | 15.3 µM (inactive) | 15.9 µM (inactive) |
| O=C(c1cccs1)N(C(=S)N1CCN(c2ccccn2)CC1)C1CCCCC1 | > 100 µM (inactive) | > 100 µM (inactive) | 54.6 µM (inactive) | 36.3 µM (inactive) | > 100 µM (inactive) | 66.2 µM (inactive) | > 100 µM (inactive) | 49.3 µM (inactive) | 44.4 µM (inactive) |  | 66.2 µM (inactive) | > 100 µM (inactive) | > 100 µM (inactive) |  | > 100 µM (inactive) |
| Cc1cc(C=O)c2c(=O)c3c(O)ccc(/C=C/C(C)C)c3oc2c1 | > 100 µM (inactive) | 37.9 µM (inactive) | > 100 µM (inactive) | > 100 µM (inactive) | 41.9 µM (inactive) | 68.9 µM (inactive) | 46.7 µM (inactive) | 20.9 µM (inactive) | > 100 µM (inactive) | > 100 µM (inactive) | 28.7 µM (inactive) | > 100 µM (inactive) | > 100 µM (inactive) |  | > 100 µM (inactive) |
| CC(=O)c1ccc2c(ccc(=O)n2C)c1 | > 100 µM (inactive) | > 100 µM (inactive) | > 100 µM (inactive) | > 100 µM (inactive) | > 100 µM (inactive) | > 100 µM (inactive) | > 100 µM (inactive) | > 100 µM (inactive) |  | > 100 µM (inactive) | 56.2 µM (inactive) | > 100 µM (inactive) | > 100 µM (inactive) | > 100 µM (inactive) | > 100 µM (inactive) |
| NC1=NN(c2ccccc2)C(=O)C1/C(=N\NC(=O)c1cc2ccccc2cc1O)C(=O)Nc1cccc(C(F)(F)F)c1 (stereo unspecified) | 39.4 µM (inactive) | 57.7 µM (inactive) | 27.1 µM (inactive) | 37 µM (inactive) | 23.5 µM (inactive) | 33.2 µM (inactive) | 29.2 µM (inactive) | 25.4 µM (inactive) | 32.8 µM (inactive) | 46.2 µM (inactive) |  | 75 µM (inactive) |  |  | 26.2 µM (inactive) |
| CCN(c1ccccc1)[C@H]1C(=O)N(c2ccc([N+](=O)[O-])cc2)[C@H]1c1ccc(OC)cc1 |  | > 100 µM (inactive) | > 100 µM (inactive) | > 100 µM (inactive) | > 100 µM (inactive) | 15.8 µM (inactive) | > 100 µM (inactive) | > 100 µM (inactive) | > 100 µM (inactive) | > 100 µM (inactive) | 63.5 µM (inactive) | > 100 µM (inactive) | 35.2 µM (inactive) | 80.7 µM (inactive) | > 100 µM (inactive) |
| CC1(O)CCC2(C)C(=O)C1(C)CCC21OCCO1 (stereo unspecified) |  | > 100 µM (inactive) | > 100 µM (inactive) | > 100 µM (inactive) | > 100 µM (inactive) | > 100 µM (inactive) | > 100 µM (inactive) |  | > 100 µM (inactive) | > 100 µM (inactive) | > 100 µM (inactive) | > 100 µM (inactive) | > 100 µM (inactive) |  | > 100 µM (inactive) |
| O=[N+]([O-])c1ccc(C[P+]2(c3ccccc3)CCCCC2)cc1.[O-][Cl+3]([O-])([O-])[O-] | > 100 µM (inactive) | > 100 µM (inactive) | > 100 µM (inactive) | > 100 µM (inactive) |  |  | > 100 µM (inactive) | > 100 µM (inactive) | > 100 µM (inactive) | > 100 µM (inactive) | > 100 µM (inactive) | > 100 µM (inactive) | > 100 µM (inactive) | > 100 µM (inactive) | > 100 µM (inactive) |
| Cc1ccc(NC(=O)CC/C(CC(=O)c2ccc(Cl)cc2)=N\NC(=O)C(=O)NN)cc1C | > 100 µM (inactive) | > 100 µM (inactive) | > 100 µM (inactive) | > 100 µM (inactive) | > 100 µM (inactive) |  | > 100 µM (inactive) | > 100 µM (inactive) | > 100 µM (inactive) | > 100 µM (inactive) | > 100 µM (inactive) | > 100 µM (inactive) | > 100 µM (inactive) | > 100 µM (inactive) | > 100 µM (inactive) |
| COc1ccc(C(CCC(C)=O)C(=O)O)cc1OC (stereo unspecified) | > 100 µM (inactive) | > 100 µM (inactive) | > 100 µM (inactive) | > 100 µM (inactive) | > 100 µM (inactive) | > 100 µM (inactive) | > 100 µM (inactive) | > 100 µM (inactive) |  |  |  | > 100 µM (inactive) | > 100 µM (inactive) | > 100 µM (inactive) | > 100 µM (inactive) |
| COc1cc(C2c3cc4c(cc3[C@@H](N(C)c3ccc(N(C)C)cc3)C3COC(=O)C23)OCO4)cc(OC)c1O (stereo partly specified) | 1.75 µM (inactive) | 1.25 µM (inactive) | 0.352 µM (active) |  | 0.343 µM (active) | 1.99 µM (inactive) | 0.291 µM (active) | 0.399 µM (active) | 0.964 µM (active) | 0.785 µM (active) | 0.0589 µM (active) | 2.15 µM (inactive) | 0.255 µM (active) | 26.8 µM (inactive) | 3.42 µM (inactive) |
| Nc1cccc(S(=O)(=O)NCC(=O)O)c1 | > 100 µM (inactive) | > 100 µM (inactive) | > 100 µM (inactive) | > 100 µM (inactive) | > 100 µM (inactive) |  | > 100 µM (inactive) | > 100 µM (inactive) | 73.5 µM (inactive) | > 100 µM (inactive) | > 100 µM (inactive) | > 100 µM (inactive) | > 100 µM (inactive) |  | > 100 µM (inactive) |
| COc1ccc(CNc2cc(OC)cc(OC)c2)cc1 | > 61.5 µM (inactive) | 51.5 µM (inactive) | > 86.1 µM (inactive) | > 56.6 µM (inactive) | 33.9 µM (inactive) | 58.9 µM (inactive) | 40.6 µM (inactive) | 52.4 µM (inactive) | 29.7 µM (inactive) | > 87.1 µM (inactive) | 23.1 µM (inactive) | > 100 µM (inactive) |  |  |  |
